Here are results for twelve compounds from patent EP2361243B9 (Virobay, Inc., priority 2008, dated 2010).

Common to all, as to type: biochemical
In one assay the target is T1, Human cathepsin F (Homo sapiens, UniProt Q9UBX1).
T1 sequence (Q9UBX1 271-484): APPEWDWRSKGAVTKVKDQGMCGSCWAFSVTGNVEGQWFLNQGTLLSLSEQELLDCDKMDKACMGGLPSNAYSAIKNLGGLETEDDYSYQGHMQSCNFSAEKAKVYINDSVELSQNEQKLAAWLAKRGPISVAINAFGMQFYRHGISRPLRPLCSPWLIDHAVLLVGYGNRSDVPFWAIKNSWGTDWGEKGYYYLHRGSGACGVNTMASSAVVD
In words: Cathepsin F Assay. Particulars: apparent inhibition constant; substrate Z-Phe-Arg-AMC, pH 6.5, 30 min incubation at room temperature; read-out: CATF (Ki). The method, then:
(§1) Solutions of test compounds in varying concentrations were prepared in 10 µL of dimethyl sulfoxide (DMSO) and then diluted into assay buffer (40 µL, comprising: MES, 50 mM (pH 6.5); EDTA, 2.5 mM; and NaCl, 100 mM); DTT, 2.5 mM; and BSA, 0.01 %. Human cathepsin F (0.1 pMoles in 25 µL of assay buffer) was added to the dilutions. The assay solutions were mixed for 5-10 seconds on a shaker plate, covered and incubated for 30 min at room temperature. Z-Phe-Arg-AMC (2 nMoles in 25 µL of assay buffer containing 10% DMSO) was added to the assay solutions and hydrolysis was followed spectrophotometrically (at λ 460 nm) for 5 min. Apparent inhibition constants (Ki) were calculated from the enzyme progress curves using standard mathematical models.

A further assay deals with CATV (Homo sapiens, UniProt O60911). In words: Cathepsin V inhibition (CATV Ki, no method described).
The target in the next assay is Human cathepsin L (Homo sapiens, UniProt P07711). In words: Cathepsin L Assay. The conditions noted are these: apparent inhibition constant; substrate Z-Phe-Arg-AMC, pH 5.5, 30 min incubation at room temperature; read-out: CATL (Ki). The method, then:
(§2) Solutions of test compounds in varying concentrations were prepared in 10 µL of dimethyl sulfoxide (DMSO) and then diluted into assay buffer (40 µL, comprising: MES, 50 mM (pH 5.5); EDTA, 2.5 mM; and DTT, 2.5 mM). Human cathepsin L (0.05 pMoles in 25 µL of assay buffer) was added to the dilutions. The assay solutions were mixed for 5-10 seconds on a shaker plate, covered and incubated for 30 min at room temperature. Z-Phe-Arg-AMC (1 nMoles in 25 µL of assay buffer) was added to the assay solutions and hydrolysis was followed spectrophotometrically at (λ 460 nm) for 5 min. Apparent inhibition constants (Ki) were calculated from the enzyme progress curves using standard mathematical models.

The next assay has as its target Human cathepsin B (Homo sapiens, UniProt P07858). In words: Cathepsin B Assay. Particulars: apparent inhibition constant; substrate Z-FR-AMC, pH 6, 30 min incubation at room temperature; read-out: CATB (Ki). The method, then: as §2, with “N,N-bis(2-hydroxyethyl)-2-aminoethanesulfonic acid (BES),” for “MES,”, “6); polyoxyethylenesorbitan monolaurate, 0.05%;” for “5.5); EDTA, 2.5 mM;”, “dithiothreitol (DTT),” for “DTT,”, “B (0.025” for “L (0.05”, “Z-FR-AMC (20” for “Z-Phe-Arg-AMC (1”

The next assay has as its target Human cathepsin S (Homo sapiens, UniProt P25774). In words: Cathepsin S Assay. The conditions noted are these: apparent inhibition constant; substrate Z-Val-Val-Arg-AMC, pH 6.5, 30 min incubation at room temperature; read-out: CATS (Ki). The method, then:
as §1, with “β-mercaptoethanol,” for “DTT,”, “[…].” for “0.01 %.”, “S (0.05” for “F (0.1”, “Z-Val-Val-Arg-AMC (4” for “Z-Phe-Arg-AMC (2”, “λ,” for “λ”

Some results are limits rather than exact numbers.

Chain of Human cathepsin L (P07711 114-333): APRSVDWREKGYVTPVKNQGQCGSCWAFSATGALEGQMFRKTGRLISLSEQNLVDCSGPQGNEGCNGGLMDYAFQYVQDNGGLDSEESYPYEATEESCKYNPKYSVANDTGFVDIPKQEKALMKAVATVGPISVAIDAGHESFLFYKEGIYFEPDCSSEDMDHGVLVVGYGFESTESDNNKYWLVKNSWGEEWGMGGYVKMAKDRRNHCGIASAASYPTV
Chain of Human cathepsin S (P25774 115-331): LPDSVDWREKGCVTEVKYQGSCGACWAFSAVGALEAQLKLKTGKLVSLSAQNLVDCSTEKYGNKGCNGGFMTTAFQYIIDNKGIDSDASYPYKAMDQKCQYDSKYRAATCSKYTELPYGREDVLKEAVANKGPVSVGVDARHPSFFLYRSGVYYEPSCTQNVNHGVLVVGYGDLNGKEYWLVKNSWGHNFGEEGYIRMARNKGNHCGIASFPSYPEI
Chain of CATV (O60911 114-334): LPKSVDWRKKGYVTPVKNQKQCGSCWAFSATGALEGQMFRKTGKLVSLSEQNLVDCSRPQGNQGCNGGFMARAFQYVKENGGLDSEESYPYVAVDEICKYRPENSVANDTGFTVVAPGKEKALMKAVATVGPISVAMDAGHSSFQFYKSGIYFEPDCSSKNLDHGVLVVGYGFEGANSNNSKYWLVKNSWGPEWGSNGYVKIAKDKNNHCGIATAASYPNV

For `N#CC1(NC(=O)[C@H](CS(=O)(=O)Cc2cccnc2)NCC(F)(F)Oc2ccc(F)cc2)CC1` [A, (R)-N-(1-cyanocyclopropyl)-2-(2,2-difluoro-2-(4-fluorophenoxy)ethylamino)-3-(pyridin-3-ylmethylsulfonyl)propanamide], the Ki on Human cathepsin F is greater than 1 µM; on CATV, less than 1 µM; at Human cathepsin L it was greater than 1 µM; on Human cathepsin B it was greater than 1 µM; on Human cathepsin S, less than 0.1 µM.

In the case of `CC[C@H](NC(=O)[C@H](CS(=O)(=O)Cc1cccnc1)NCC(F)(F)Oc1ccc(F)cc1)C(=O)C(=O)NC1CC1` [B, (S)-N-cyclopropyl-3-((R)-2-(2,2-difluoro-2-(4-fluorophenoxy)ethylamino)-3-(pyridin-3-ylmethylsulfonyl)propanamido)-2-oxopentanamide], the Ki was less than 1 µM on Human cathepsin F; less than 0.1 µM on CATV; less than 0.1 µM on Human cathepsin L; less than 0.1 µM at Human cathepsin B; less than 0.1 µM at Human cathepsin S.

Regarding `CC#C[C@H](N[C@@H](CSCC1CC1)C(=O)NC1(C#N)CC1)C(F)(F)Oc1ccc(SC)cc1` [Compound C, (R)-N-(1-cyanocyclopropyl)-3-(cyclopropylmethylthio)-2-((S)-1,1-difluoro-1-(4-(methylthio)phenoxy)pent-3-yn-2-ylamino)propanamide], the Ki on Human cathepsin F was greater than 1 µM; at CATV it was greater than 1 µM; on Human cathepsin L, greater than 1 µM; at Human cathepsin B, less than 0.1 µM; at Human cathepsin S, less than 1 µM.

On to `CC#C[C@H](N[C@@H](CS(=O)(=O)CC1CC1)C(=O)NC1(C#N)CC1)C(F)(F)Oc1ccc(S(C)(=O)=O)cc1` [D, (R)-N-(1-cyanocyclopropyl)-3-(cyclopropylmethylsulfonyl)-2-((S)-1,1-difluoro-1-(4-(methylsulfonyl)phenoxy)pent-3-yn-2-ylamino)propanamide], for which the Ki was greater than 1 µM at Human cathepsin F; less than 1 µM at CATV; greater than 1 µM at Human cathepsin L; greater than 1 µM on Human cathepsin B; less than 0.1 µM on Human cathepsin S.

Turning to `CC#C[C@H](N[C@@H](CSCc1ccccn1)C(=O)NC1(C#N)CC1)C(F)(F)Oc1ccc(SC)cc1` [E, (R)-N-(1-cyanocyclopropyl)-2-((S)-1,1-difluoro-1-(4-(methylthio)phenoxy)pent-3-yn-2-ylamino)-3-(pyridin-2-ylmethylthio)propanamide], the Ki at Human cathepsin F was greater than 1 µM; at CATV it was less than 1 µM; on Human cathepsin L it was greater than 1 µM; at Human cathepsin B, greater than 1 µM; on Human cathepsin S, less than 0.1 µM.

As for `CC#C[C@H](N[C@@H](CS(=O)(=O)Cc1ccccn1)C(=O)NC1(C#N)CC1)C(F)(F)Oc1ccc(S(C)(=O)=O)cc1` [F, (R)-N-(1-cyanocyclopropyl)-2-((S)-1,1-difluoro-1-(4-(methylsulfonyl)phenoxy)pent-3-yn-2-ylamino)-3-(pyridin-2-ylmethylsulfonyl)propanamide], the Ki at Human cathepsin F is greater than 1 µM; at CATV it was less than 0.1 µM; on Human cathepsin L, greater than 1 µM; on Human cathepsin B, greater than 1 µM; on Human cathepsin S it was less than 0.1 µM.

On to `CC#C[C@H](N[C@@H](CSCc1cccnc1)C(=O)NC1(C#N)CC1)C(F)(F)Oc1ccc(SC)cc1` [G], for which the Ki is greater than 1 µM at Human cathepsin F; less than 1 µM at CATV; greater than 1 µM at Human cathepsin L; greater than 1 µM at Human cathepsin B; less than 0.1 µM on Human cathepsin S.

Regarding `CC#C[C@H](N[C@@H](CS(=O)(=O)Cc1cccnc1)C(=O)NC1(C#N)CC1)C(F)(F)Oc1ccc(S(C)(=O)=O)cc1` [H, (R)-N-(1-cyanocyclopropyl)-3-((S)-1,1 1-difluoro-1-(4-(methylsulfonyl)phenoxy)pent-3-yn-2-ylamino)-2-((pyridin-3-ylmethylsulfonyl)methyl)propanamide], the Ki on Human cathepsin F is greater than 1 µM; at CATV, less than 0.1 µM; at Human cathepsin L, greater than 1 µM; on Human cathepsin B, greater than 1 µM; at Human cathepsin S, less than 0.1 µM.

As for `CC#C[C@H](N[C@@H](CS(=O)(=O)Cc1ccc[n+]([O-])c1)C(=O)NC1(C#N)CC1)C(F)(F)Oc1ccc(S(C)(=O)=O)cc1` [I], the Ki on Human cathepsin F is greater than 1 µM; on CATV it was less than 0.1 µM; on Human cathepsin L, greater than 1 µM; on Human cathepsin B, greater than 1 µM; at Human cathepsin S, less than 0.1 µM.

In the case of `CC[C@H](NC(=O)[C@H](CS(=O)(=O)CC1CC1)NCC(F)(F)Oc1ccc(F)cc1)C(=O)C(=O)NC1CC1` [J, (S)-N-cyclopropyl-3-((R)-3-(cyclopropylmethylsulfonyl)-2-(2,2-difluoro-2-(4-fluorophenoxy)ethylamino)propanamido)-2-oxopentanamide], the Ki on Human cathepsin F is less than 1 µM; at CATV, less than 0.1 µM; on Human cathepsin L, less than 1 µM; at Human cathepsin B, less than 0.1 µM; at Human cathepsin S, less than 0.1 µM.

Take `CC[C@H](NC(=O)[C@H](CC(F)(F)CC1CC1)NCC(F)(F)Oc1ccc(F)cc1)C(=O)C(=O)NC1CC1` [K, (S)-5-cyclopropyl-N-((S)-1-(cyclopropylamino)-1,2-dioxopentan-3-yl)-2-(2,2-difluoro-2-(4-fluorophenoxy)ethylamino)-4,4-difluoropentanamide]: the Ki is less than 0.1 µM at CATV, less than 0.1 µM on Human cathepsin L, less than 1 µM at Human cathepsin B and less than 0.1 µM on Human cathepsin S.

In the case of `N#CC1(NC(=O)[C@H](CC(F)(F)CC2CC2)NCC(F)(F)Oc2ccc(F)cc2)CC1` [L, (S)-N-(1-cyanocyclopropyl)-5-cyclopropyl-2-(2,2-difluoro-2-(4-fluorophenoxy)ethylamino)-4,4-difluoropentanamide], the Ki was greater than 1 µM at CATV, greater than 1 µM at Human cathepsin L, greater than 1 µM at Human cathepsin B and less than 1 µM on Human cathepsin S.
